Several values for one entry are separate records, joined by “and”; a condition that tells them apart may be missing. Equal entries are not always repeated. Where two headings read alike, the source gives them in different places.
Assays:
[1] = Pharmacokinetics of R-55 following intravenous administration in pigs; assay type: in vivo, White Landrace female pigs; conditions: 0.2 mg/kg intravenous
Method: R-55 and related compounds were assayed in the plasma samples using a Waters (USA) Alliance high performance liquid chromatograph coupled with a Waters Micromass ZQ quadruple mass spectrometer (in ESI+ mode) as a detector with Waters Empower chromatographic and mass spectrometric software for chromatographic data acquisition, processing and instrument control.
The tested compound was extracted from plasma using dichloromethane, followed by concentration by evaporating the extract and dissolution in a low volume chromatographic mobile phase.
The instrument was calibrated using plasma spiked with various concentrations of the tested compound. Enrofloxacin (m/z=360.4) was used as an internal standard.
In order to investigate the pharmacokinetics of R-55, the presence of R-55 in plasma was measured following intravenous administration of R-55 in pigs.
White Landrace female pigs were acclimatized for 2days prior to treatment. 3 pigs were administered 0.2 mg/kg R-55 by intravenous injection at a dose volume of 0.2 ml/kg. Blood samples were withdrawn from each pig via a jugular vein catheter at the following time points: immediately prior to injection (t=0), and 5 minutes, 10 minutes, 15 minutes, 30 minutes, 45 minutes, 60 minutes, 90 minutes, 2 hours, 3 hours, 4 hours, and 6 hours post-injection. All samples were collected in a K3EDTA tube (Greiner). Blood samples were stored on crushed ice after collection. Plasma was separated by centrifugation (10 minutes at 3000 rotations per minute), within two hours post-sampling. Each plasma sample was divided into two aliquots before freezing. Plasma samples were then stored at −20° C. until being dispatched for LCMS analysis.
Clinical observations were performed during the six hours following application.
Pharmacokinetic analysis was performed using the WINNONLIN version 5.0 (Pharsight, USA) computerized software. Area under curves of concentration vs. time (AUC) were calculated using the log linear trapezoidal rule. Area under curves were determined for the time period for which concentrations were measured, i.e., t=0 to 6 hours (AUCall), and for an infinite time period (AUCINF), as determined by extrapolation of the curve to t=∞.

[2] = molecular target: Serotonin 5-HT1A receptor (Homo sapiens (Human), UniProt P08908); assay: Competitive binding, 8-OH-DPAT radioligand
Serotonin 5-HT1A receptor, sequence (P08908 whole entry): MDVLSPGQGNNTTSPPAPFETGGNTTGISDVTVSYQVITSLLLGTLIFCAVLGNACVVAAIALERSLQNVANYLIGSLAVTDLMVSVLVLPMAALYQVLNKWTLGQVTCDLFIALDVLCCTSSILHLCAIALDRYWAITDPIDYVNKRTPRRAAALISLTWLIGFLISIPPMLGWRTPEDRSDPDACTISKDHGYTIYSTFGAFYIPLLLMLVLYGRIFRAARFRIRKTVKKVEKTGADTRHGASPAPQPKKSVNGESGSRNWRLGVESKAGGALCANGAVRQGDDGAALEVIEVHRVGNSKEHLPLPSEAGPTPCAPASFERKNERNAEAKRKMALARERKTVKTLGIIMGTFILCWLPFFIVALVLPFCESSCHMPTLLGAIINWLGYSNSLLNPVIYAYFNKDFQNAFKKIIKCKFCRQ
Method: R-55 (which comprises a 3-hydroxyphenyl moiety) and the structurally related compounds N-108 (2-{[4-(2-ethoxyphenyl)piperazin-1-yl]methyl}quinazolin-4(3H)-one) and B-39 (7-chloro-2-((5,6-dihydro-4-(2-methoxyphenyl)pyridin-1(2H)-yl)methyl)quinazolin-4(3H)-one) were assayed for competitive binding to a variety of receptors, including D4.4 type dopamine receptor, in order to assess their specificity for D4.4 dopamine receptors.
The receptors were expressed as human recombinant proteins in CHO cells, except for adrenergic α1 and α2 receptors which were expressed in Wistar rat brain and cerebral cortex cells, respectively, and melanocortin MC4 receptor which was expressed in human recombinant HEK-293 cells. Binding was determined using the following radioligands in the presence of various concentrations of the tested compound:
1.5 nM 8-OH-DPAT for serotonin 5-HT1A receptor, and
The binding assays were performed in accordance with procedures described in the literature (Greengrass & Bremner, 1979; Boyajian & Leslie, 1987; Broadhurst, 1988; Lewis, 2001; Sutton, 1995; Dearry, 1990; Zhou, 1990; Grandy, 1989; Hayes, 1992; Sokoloff, 1990; Van Tol, 1991; Van Tol 1992; Sunahara, 1991; Weinshank, 1991; Schioth, 1996; Schioth 1997; Martin & Humphrey, 1994; May, 2003; Wolf & Schutz, 1997).

For `O=c1[nH]c(CN2CCN(c3cccc(O)c3)CC2)nc2ccccc12` [Compound R-55, 2-((4-(3-hydroxyphenyl)piperazin-1-yl)methyl)quinazolin-4-one], the “Time to elimination from the bloodstream after administration” value [1] was no more than 30 min, the R-55 plasma concentration ([1]; 0 minutes (immediately prior to injection), individual animals #1-#3) was 0 ng/mL and the R-55 plasma concentration ([1]; 5 minutes after injection, individual animals #1-#3) was 122.1 ng/mL and 142.2 ng/mL. For the same compound, the R-55 plasma concentration ([1]; 10 minutes after injection, individual animals #1-#3) was 112.9 ng/mL and 83.0 ng/mL, the R-55 plasma concentration ([1]; 15 minutes after injection, individual animals #1-#3) was 30.4 ng/mL and 76.8 ng/mL and 52.8 ng/mL and the R-55 plasma concentration ([1]; 30 minutes after injection, individual animals #1-#3) was 0 ng/mL and 24.9 ng/mL and 22.3 ng/mL. For the same compound, the “R-55 detection in plasma” value ([1]; 45 minutes or more following administration) was “No R-55 was detected”, the AUCINF ([1]; extrapolation to infinite time, individual animals) was 2501.3 ng·min/mL and 2132.2 ng·min/mL and the Clearance ([1]; individual animals) was 80.0 mL/min/kg and 93.8 mL/min/kg. The “Cmax - maximal concentration” value ([1]; individual animals) was 122.1 ng/mL and 142.2 ng/mL, the Mean residence time ([1]; individual animals) was 17.0 min and 15.8 min and the T1/2 - half-life ([1]; individual animals) was 8.67 min and 10.34 min and 9.67 min. The Volume of distribution ([1]; individual animals) was 1.193 L/kg and 1.3081 L/kg, the “Volume of distribution at steady state” value ([1]; individual animals) was 1.3589 L/kg and 1.5093 L/kg and the “Clinical observations (side effects)” value ([1]; six hours following application) was “No abnormal side effects were observed”. The AUCall ([1]; t=0 to 6 hours, individual animals) was 2129.0 ng·min/mL and 1821.3 ng·min/mL, the concentration at 0 min ([1]; female, White Landrace, pig, plasma, iv, 0.2 mg/kg, 0 minutes (immediately prior to injection), individual animals #1-#3) was 0 ng/mL and the concentration at 5 min ([1]; female, White Landrace, pig, plasma, iv, 0.2 mg/kg, 5 minutes after injection, individual animals #1-#3) was 158 ng/mL. For the same compound, the concentration at 10 min ([1]; female, White Landrace, pig, plasma, iv, 0.2 mg/kg, 10 minutes after injection, individual animals #1-#3) was 86.7 ng/mL, the AUC(0-inf) ([1]; female, White Landrace, pig, plasma, iv, 0.2 mg/kg, extrapolation to infinite time, individual animals) was 32.1 ng·h/mL and the Clearance ([1]; female, White Landrace, pig, plasma, iv, 0.2 mg/kg, individual animals, read-out: Clearance) was 104 mL/min/kg. It also gave a Cmax ([1]; female, White Landrace, pig, plasma, iv, 0.2 mg/kg, individual animals, read-out: Cmax - maximal concentration) of 158 ng/mL, an MRT ([1]; female, White Landrace, pig, plasma, iv, 0.2 mg/kg, individual animals, read-out: Mean residence time (converted)) of 14.5 min and a half-life ([1]; female, White Landrace, pig, plasma, iv, 0.2 mg/kg, individual animals, read-out: T1/2 - half-life) of 9 to 10 min. For the same compound, the Vd ([1]; female, White Landrace, pig, plasma, iv, 0.2 mg/kg, individual animals, read-out: Volume of distribution) was 1.3 L/kg, the Vd ([1]; female, White Landrace, pig, plasma, iv, 0.2 mg/kg, individual animals, read-out: Volume of distribution at steady state) was 1.51 L/kg and the AUC ([1]; female, White Landrace, pig, plasma, iv, 0.2 mg/kg, t=0 to 6 hours, individual animals) was 27.9 ng·h/mL. For the same compound, the “Competitive binding (%) at 5 μM of tested compound” value [2] was 7%.

From patent publication US9353067B2, “Heterocyclic compounds and uses thereof in the treatment of sexual disorders” (ATIR Holding S.A., priority 2011, dated 2016)
